# Structures can show the parent of a compound that is named as a salt.
# Molecular target: Recombinant Btk (Homo sapiens (Human), UniProt Q06187)
# Assay: BTK kinase assay (TR-FRET)
# Settings: read-out: IC50 (nM) Btk; 1 hour pre-incubation, ATP at Km
# Recombinant Btk, sequence (Q06187 whole entry): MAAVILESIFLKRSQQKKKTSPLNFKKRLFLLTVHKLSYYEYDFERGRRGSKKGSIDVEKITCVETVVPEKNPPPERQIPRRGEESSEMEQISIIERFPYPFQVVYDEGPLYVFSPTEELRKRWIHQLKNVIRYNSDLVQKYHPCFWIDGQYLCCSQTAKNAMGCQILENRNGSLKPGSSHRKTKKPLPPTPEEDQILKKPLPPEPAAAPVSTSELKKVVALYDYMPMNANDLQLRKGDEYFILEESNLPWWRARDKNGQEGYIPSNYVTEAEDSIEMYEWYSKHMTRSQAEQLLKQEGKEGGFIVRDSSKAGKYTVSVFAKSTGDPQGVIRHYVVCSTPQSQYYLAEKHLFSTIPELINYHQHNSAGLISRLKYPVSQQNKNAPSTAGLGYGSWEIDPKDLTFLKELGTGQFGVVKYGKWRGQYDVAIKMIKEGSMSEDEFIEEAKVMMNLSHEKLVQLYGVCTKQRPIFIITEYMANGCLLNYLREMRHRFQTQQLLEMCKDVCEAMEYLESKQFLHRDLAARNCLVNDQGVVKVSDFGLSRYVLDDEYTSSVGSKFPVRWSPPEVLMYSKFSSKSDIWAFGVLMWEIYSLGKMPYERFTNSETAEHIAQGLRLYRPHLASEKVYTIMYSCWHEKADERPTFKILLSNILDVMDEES
row,SMILES,IC50 [nM]
1,"C=CC(=O)NCC1CNc2c(C(N)=O)c(-c3ccc(Oc4ccccc4)cc3)nn2C1 (stereo not shown) [Compound 86, 6-(Acrylamidomethyl)-2-(4-phenoxyphenyl)-4,5,6,7-tetrahydropyrazolo[1,5-a]pyrimidine-3-carboxamide]",2.2
2,"C=CC(=O)N1CC2(CCNc3c(C(N)=O)c(-c4ccc(Oc5ccccc5)cc4)nn32)C1 [Compound 119, 1-acryloyl-2′-(4-phenoxyphenyl)-5′,6′-dihydro-4′H-spiro[azetidine-3,7′-pyrazolo[1,5-a]pyrimidine]-3′-carboxamide]",40
3,"C=CC(=O)N1CC(C2CCNc3c(C(N)=O)c(-c4ccc(Oc5ccccc5C#N)cc4)nn32)C1 (stereo not shown) [Compound 135, 7-(1-acryloylazetidin-3-yl)-2-(4-(2-cyanophenoxy)phenyl)-4,5,6,7-tetrahydropyrazolo[1,5-a]pyrimidine-3-carboxamide]",0.38
4,"NC(=O)c1c(-c2ccc(Oc3ccccc3)cc2)nn2c1NCc1ccc(N)cc1-2 [Compound 68, 8-Amino-2-(4-phenoxyphenyl)-4,5-dihydropyrazolo[1,5-a]quinazoline-3-carboxamide]",190
5,"C=CC(=O)N1CC(C2CCNc3c(C(N)=O)c(-c4ccc(Cl)cc4)nn32)C1 (stereo not shown) [Compound 145, 7-(1-acryloylazetidin-3-yl)-2-(4-chlorophenyl)-4,5,6,7-tetrahydropyrazolo[1,5-a]pyrimidine-3-carboxamide]",72
6,"C=CC(=O)N(C)c1ccccc1C1CCNc2c(C(N)=O)c(-c3ccc(Oc4ccc(F)cc4)cc3)nn21 (stereo not shown) [Compound 16, 2-(4-(4-Fluorophenoxy)phenyl)-7-(2-(N-methylacrylamido)phenyl)-4,5,6,7-tetrahydropyrazolo[1,5-a]pyrimidine-3-carboxamide]",19
7,"C=CC(=O)NCC1CCNc2c(C(N)=O)c(-c3ccc(OCc4ccccc4)c(OC)c3)nn21 (stereo not shown) [Compound 142, 7-(acrylamidomethyl)-2-(4-(benzyloxy)-3-methoxyphenyl)-4,5,6,7-tetrahydropyrazolo[1,5-a]pyrimidine-3-carboxamide]",54
8,"COc1cc(-c2nn3c(c2C(N)=O)NCCC3c2ccccc2NC(=O)/C=C/CN(C)C)ccc1C (stereo not shown) [Compound 165, (E)-7-(2-(4-(Dimethylamino)but-2-enamido)phenyl)-2-(3-methoxy-4-methylphenyl)-4,5,6,7-tetrahydropyrazolo[1,5-a]pyrimidine-3-carboxamide]",1.6
9,"NCC1CCNc2c(C(N)=O)c(-c3cnn(Cc4ccccc4)c3)nn21 (stereo not shown) [Compound 36, 7-(Aminomethyl)-2-(1-benzyl-1H-pyrazol-4-yl)-4,5,6,7-tetrahydro pyrazolo[1,5-a]pyrimidine-3-carboxamide trifluoroacetate]",> 10000
10,"C=CC(=O)Nc1ccc2c(c1)c(=O)[nH]c1c(C(N)=O)c(-c3ccc(Oc4ccccc4)cc3)nn12 [Compound 78, 7-Acrylamido-5-oxo-2-(4-phenoxyphenyl)-4,5-dihydropyrazolo[1,5-a]quinazoline-3-carboxamide]",21
11,"C=CC(=O)Nc1ccccc1C1CCNc2c(C(N)=O)c(-c3ccc(F)c(F)c3)nn21 (stereo not shown) [Compound 137, 7-(2-acrylamidophenyl)-2-(3,4-difluorophenyl)-4,5,6,7-tetrahydropyrazolo[1,5-a]pyrimidine-3-carboxamide]",3.2
12,"C=CC(=O)N1CC(C2CCNc3c(C(N)=O)c(-c4ccc(Oc5cccc(Cl)c5)cc4)nn32)C1 (stereo not shown) [Compound 107, 7-(1-acryloylazetidin-3-yl)-2-(4-(3-chlorophenoxy)phenyl)-4,5,6,7-tetrahydropyrazolo[1,5-a]pyrimidine-3-carboxamide]",0.48
13,"NC(=O)c1c(-c2ccc(OC3CCOCC3)cc2)nn2c1NCCC2c1ccccc1N (stereo not shown) [Compound 23, 7-(2-Aminophenyl)-2-(4-(tetrahydro-2H-pyran-4-yloxy)phenyl)-4,5,6,7-tetrahydropyrazolo[1,5-a]pyrimidine-3-carboxamide]",3200
14,"C=CC(=O)Nc1ccccc1C1CCNc2c(C(N)=O)c(-c3ccc(F)c(Cl)c3)nn21 (stereo not shown) [Compound 196, 7-(2-Acrylamidophenyl)-2-(3-chloro-4-fluorophenyl)-4,5,6,7-tetrahydropyrazolo[1,5-a]pyrimidine-3-carboxamide]",1.1
15,"NC(=O)c1c(-c2ccc(Oc3ccccc3)cc2)nn2c1NCCC2c1cccnc1 (stereo not shown) [Compound 101, 2-(4-phenoxyphenyl)-7-(pyridin-3-yl)-4,5,6,7-tetrahydropyrazolo[1,5-a]pyrimidine-3-carboxamide]",550
16,"C=CC(=O)Nc1ccccc1C1CCNc2c(C(N)=O)c(-c3ccc(OC4CCOCC4)cc3)nn21 (stereo not shown) [Compound 24, 7-(2-Acrylamidophenyl)-2-(4-(tetrahydro-2H-pyran-4-yloxy)phenyl)-4,5,6,7-tetrahydropyrazolo[1,5-a]pyrimidine-3-carboxamide]",39
17,"C=CC(=O)Nc1ccccc1C1CCNc2c(C(N)=O)c(-c3ccc(Oc4ccc(F)cc4)cc3)nn21 (stereo not shown) [Compound 12, 7-(2-Acrylamidophenyl)-2-(4-(4-fluorophenoxy)phenyl)-4,5,6,7-tetrahydropyrazolo[1,5-a]pyrimidine-3-carboxamide]",1.7
18,"C=CC(=O)N1CC(C2(C)CCNc3c(C(N)=O)c(-c4ccc(Oc5ccccc5)cc4)nn32)C1 (stereo not shown) [Compound 175, 7-(1-Acryloylazetidin-3-yl)-7-methyl-2-(4-phenoxyphenyl)-4,5,6,7-tetrahydropyrazolo[1,5-a]pyrimidine-3-carboxamide]",1.2
19,"N#Cc1c(-c2ccc(Oc3ccccc3)cc2)nn2c(-c3cccc(N)c3)ccnc12 [Compound 1, 7-(3-Aminophenyl)-2-(4-phenoxyphenyl)pyrazolo[1,5-a]pyrimidine-3-carbonitrile]",> 10000
20,"C=CC(=O)Nc1ccccc1C1CCNc2c(C(N)=O)c(-c3cccc(OC)c3)nn21 (stereo not shown) [Compound 166, 7-(2-Acrylamidophenyl)-2-(3-methoxyphenyl)-4,5,6,7-tetrahydropyrazolo[1,5-a]pyrimidine-3-carboxamide]",2.7
21,"NC(=O)c1c(-c2ccc(Oc3ccccc3)cc2)nn2c1[nH]c(=O)c1cc(N)ccc12 [Compound 77, 7-Amino-5-oxo-2-(4-phenoxyphenyl)-4,5-dihydropyrazolo[1,5-a]quinazoline-3-carboxamide]",480
22,"C=CC(=O)NCC1CCNc2c(C(N)=O)c(-c3cnn(Cc4ccccc4)c3)nn21 (stereo not shown) [Compound 37, 7-(Acrylamidomethyl)-2-(1-benzyl-1H-pyrazol-4-yl)-4,5,6,7-tetrahydropyrazolo[1,5-a]pyrimidine-3-carboxamide]",640
23,"C=CC(=O)Nc1ccccc1C1CCNc2c(C(N)=O)c(-c3ccc(Cl)c(Cl)c3)nn21 (stereo not shown) [Compound 156, 7-(2-Acrylamidophenyl)-2-(3,4-dichlorophenyl)-4,5,6,7-tetrahydropyrazolo[1,5-a]pyrimidine-3-carboxamide]",0.55
24,"C=CC(=O)N1CCCC1C1CCNc2c(C(N)=O)c(-c3ccc(Oc4ccccc4)cc3)nn21 (stereo not shown) [Compound 103, 7-(1-acryloylpyrrolidin-2-yl)-2-(4-phenoxyphenyl)-4,5,6,7-tetrahydropyrazolo[1,5-a]pyrimidine-3-carboxamide]",1.1
25,"C=CC(=O)N1CCC(C2CCNc3c(C(N)=O)c(-c4ccccc4)nn32)CC1 (stereo not shown) [Compound 144, 7-(1-acryloylpiperidin-4-yl)-2-phenyl-4,5,6,7-tetrahydropyrazolo[1,5-a]pyrimidine-3-carboxamide trifluoroacetate]",140
